According to patent publication US20090088371A1, “COMBINATION THERAPY WITH SYK KINASE INHIBITOR” (Rigel Pharmaceuticals, Inc., priority 2007, published 2009):
Several values for one entry are separate records, joined by “and”; a condition that tells them apart may be missing. Equal values may be shown once. Entries after “also recorded” stand apart in the source; their conditions may differ.

Key:
C57BL/6 mice = experiment: Anti-CD41 antibody-induced thrombocytopenia in C57BL/6 mice, platelet counts (Examples 1 and 3, FIG. 1); format: in vivo, mouse; details: for Platelet count versus mice treated with CD41 antibody alone: first dose 30 minutes prior to platelet-depleting antibody, 24 h
Method: On Day 1 of each study, mice were rendered thrombocytopenic by injection with rat anti-mouse CD41 antibody (IgG1, Clone MWReg30) by the intraperitoneal (IP) route. The platelet depleting antibody (rat anti-mouse GPIIb, also referred to as anti-integrin αIIb or anti-CD41) was administered […] treatment with Compound I on Day 1. Mice in control groups either received nothing (naïve), saline only, or an isotype-matched irrelevant control antibody (nonspecific rat anti-mouse IgG1, Clone R3-34, BD, San Jose, Calif.).
Mice received vehicle or Compound 1 at various dose levels (0, 20, 40, or 80 mg/kg, PO, 5 mL/kg) 30 minutes prior to the platelet depleting antibody, then again 8 h, 16 h, and 23 h after induction of thrombocytopenia. At 24 h after administration of the anti-CD41 platelet-depleting antibody, blood was harvested from all groups by cardiocentesis to assess the platelet counts or drug levels in the plasma. An aliquot from each sample was transferred to a plasma separator tube and the separated plasma was stored at −80° C. for analysis. Blood was placed indirectly on ice for delivery. Platelet enumeration was performed using Bayer Advia 120 Bayer Advia 120 hematology system (Bayer, Tarrytown, N.Y.) by Quality Clinical Laboratories (QCL, Mountain View, Calif.).
Systemic drug exposures were determined at sacrifice with the final dose being given on the evening of Day 1 (8 h prior to blood collection) or on the morning of Day 2 (1 h prior to blood collection). Satellite animals treated with Compound 1 and not receiving platelet-depleting antibody were added to obtain a more complete PK profile.
Significant differences between vehicle and Compound I-treated groups were determined statistically using the GraphPad Prism 4.0® software package, unless otherwise stated. In general, Prism 4.0® uses the standard calculations as detailed in D. G. Altman, Practical Statistics for Medical Research, 1991, Chapman and Hall. Platelet count data was analyzed using Kruskal Wallis Nonparametric test with Dunn's multiple group post-hoc test to compare the rank sums, unless otherwise noted.
In FIG. 1, each data point represents platelet counts for an individual mouse administered a single IP injection of 5 μg of CD41 platelet depleting antibody (n=11-12 per group). Mice were bled 24 hours post antibody administration and platelet counts were performed using Bayer Advia 120 analyzer. Mice were given vehicle or indicated doses of Compound 1. Platelet-depleting antibody was administered 30 minutes after the first Compound 1 or vehicle dose on Day 1.

CD-1 mice = experiment: Antibody-mediated thrombocytopenia in CD-1 mice, platelet counts by flow cytometry (Examples 2 and 4, FIG. 2, Table 1); format: in vivo, mouse; details: for Individual Animal Platelet Count / Platelet Count Mean: 24 hours following anti-αIIb treatment; for Individual Animal Platelet Count: one value per animal; for Platelet Count Mean: n=6
Method: CD-1 mice, approximately 10 weeks of age, were obtained from Charles River (Montreal, PQ, Canada). All mice, with the exception of the naïve group, were injected with 2 μg rat anti-mouse GPIIb (also referred to as anti-integrin αIIb or anti-CD41) antibody (specific for GPIIb, clone MWReg30, rat IgG1, κ, PharMingen, Missassuaga, ON, Canada) in 200 μL PBS on Day 1. Platelets were enumerated on Day 2 (24 hours following injection of anti-platelet antibody).
During the 3 day experiment (Day O— Day 2), Compound I-treated mice were given the indicated doses of Compound 1 by oral gavage once on Day 0, twice on Day 1 and once on Day 2. Control animals were given an equal volume of vehicle. For the IVIg group, mice were injected intraperitoneally (IP) with 2 g/kg Gamunex IVIg (Bayer, Elkhart, Ill.) once on Day 0. Two concentrations of Compound 1 (3.08 and 4.94 mg/mL) were formulated with 0.1% CMC Na-0.1% Methylparaben-0.02% Propylparaben-H2O. One day prior to platelet depletion, treatment began. Mice were treated orally twice daily (bid.) with Compound 1 (30.8 or 49.4 mg/kg of body weight per dose, n=6) at a dose volume of 10 mL/kg. IVIg (2 g/kg) was used as a reference agent and was administered IP as described previously (Crow et al., 2003).
Two hours following the last treatment of Compound 1 on Day 2, all mice were bled via the saphenous vein; 50 μL of blood was collected into 450 μL PBS/1% EDTA. The blood was further diluted to a final dilution of 1/12,000 in PBS/1% EDTA. Platelets were enumerated by flow cytometry according to Crow et al., 2001. Briefly, the samples were acquired for 2 minutes on a flow-rate-calibrated FACScan flow cytometer (Becton-Dickinson, San Jose, Calif.), using forward scatter (FSC) versus side scatter (SSC) to gate platelets.
All values in the text and figures are expressed as mean±standard error of the mean (SEM) for n=6 mice/group unless noted otherwise, and n represents the number of mice. Differences between treatment and control groups were compared using the 2-tailed Student's t-test using GraphPad Prism Inc., software ver. 4.0 (San Diego, Calif., USA).
On Day 0, mice were pre-treated with nothing (Nil), 0.25 mL Vehicle twice (8 hrs apart) or the indicated doses of Compound 1 (in 0.25 mL vehicle) or 2 g/kg IVIg. On Day 1, the above treatments were repeated except for IVIg. All mice also received 2 μg anti-platelet antibody on Day 1. On Day 2, all mice were bled for platelet enumeration by flow cytometry as described. n=6 mice per group. Data are expressed as mean±SEM.

**Q.** What does the source list for `COc1cc(Nc2ncc(F)c(Nc3ccc4c(n3)N(COP(=O)(O)O)C(=O)C(C)(C)O4)n2)cc(OC)c1OC` [Compound 1]?
**A.** Platelet count versus the 80 mg/kg group (C57BL/6 mice; 20 mg/kg PO with platelet depleting antibody, p<0.01): significantly lower; Platelet count versus mice treated with CD41 antibody alone (C57BL/6 mice; 40 mg/kg PO, p<0.05): significantly higher platelet count; Platelet count versus mice treated with CD41 antibody alone (C57BL/6 mice; 80 mg/kg PO, p<0.001): significantly higher platelet count; Dose dependence of inhibition of platelet depletion (C57BL/6 mice; 20, 40, 80 mg/kg PO, C57BL/6 mice): dose-dependent inhibition of platelet depletion; Inhibition of platelet depletion compared with vehicle alone (CD-1 mice; 30.8 mg/kg group, p=0.001, Day 2): highly significant; Inhibition of platelet depletion compared with vehicle alone (CD-1 mice; 49.4 mg/kg group, p=0.008, Day 2): highly significant; Dose dependence of the effect on platelet counts (CD-1 mice; 30.8 versus 49.4 mg/kg, difference not significant (p=0.9)): did not appear to be dose-dependent; Individual Animal Platelet Count (CD-1 mice; Compound 1 30.8 mg/kg oral gavage, CD-1 mice, 30.8 mg/kg): 3.92e+11 L⁻¹ and 3.98e+11 L⁻¹ and 4.57e+11 L⁻¹ and 5.84e+11 L⁻¹ and 6.02e+11 L⁻¹ and 6.79e+11 L⁻¹; Platelet Count Mean (CD-1 mice; Compound 1 30.8 mg/kg oral gavage): 5.19e+11 L⁻¹; Individual Animal Platelet Count (CD-1 mice; Compound 1 49.4 mg/kg oral gavage, CD-1 mice, 49.4 mg/kg): 4.11e+11 L⁻¹ and 4.37e+11 L⁻¹ and 4.33e+11 L⁻¹ and 4.98e+11 L⁻¹ and 9.31e+11 L⁻¹ and 5.1e+11 L⁻¹; Platelet Count Mean (CD-1 mice; Compound 1 49.4 mg/kg oral gavage): 5.37e+11 L⁻¹; Effect on platelet depletion by anti-platelet antibody (CD-1 mice; Compound 1 treatment prior to and following CD41 platelet depleting antibody, CD-1 mice, Day 2): reduced depletion of platelets; also recorded: inhibited the reduction in platelet count
